Key:
[1] = target: T1, Amine oxidase [flavin-containing] B (Homo sapiens, UniProt P27338); assay: Inhibition of recombinant human MAO-B using kynuramine as substrate assessed as inhibition constant incubated for 20 mins by spectrophotometric assay
T1 sequence (P27338 whole entry): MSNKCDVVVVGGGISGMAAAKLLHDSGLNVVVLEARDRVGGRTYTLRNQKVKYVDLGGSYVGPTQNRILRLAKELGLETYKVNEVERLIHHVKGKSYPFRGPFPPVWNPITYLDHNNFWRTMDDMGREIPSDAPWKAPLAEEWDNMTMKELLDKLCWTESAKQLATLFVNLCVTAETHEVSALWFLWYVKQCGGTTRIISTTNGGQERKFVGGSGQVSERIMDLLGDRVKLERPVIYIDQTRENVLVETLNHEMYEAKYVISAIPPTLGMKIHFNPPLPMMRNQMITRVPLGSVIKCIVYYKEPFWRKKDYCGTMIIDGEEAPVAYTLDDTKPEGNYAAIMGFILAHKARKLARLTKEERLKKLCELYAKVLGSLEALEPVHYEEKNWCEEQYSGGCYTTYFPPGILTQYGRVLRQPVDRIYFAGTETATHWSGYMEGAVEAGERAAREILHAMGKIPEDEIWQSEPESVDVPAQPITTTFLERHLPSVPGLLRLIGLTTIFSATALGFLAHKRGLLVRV

[2] = target: T2, Amine oxidase [flavin-containing] A (Homo sapiens, UniProt P21397); assay: Inhibition of recombinant human MAO-A expressed in baculovirus infected BTI-TN-5B1-4 insect cells using p-tyramine as substrate incubated for 15 mins by Amplex Red reagent and horseradish peroxidase based fluorometric analysis
T2 sequence (P21397 whole entry): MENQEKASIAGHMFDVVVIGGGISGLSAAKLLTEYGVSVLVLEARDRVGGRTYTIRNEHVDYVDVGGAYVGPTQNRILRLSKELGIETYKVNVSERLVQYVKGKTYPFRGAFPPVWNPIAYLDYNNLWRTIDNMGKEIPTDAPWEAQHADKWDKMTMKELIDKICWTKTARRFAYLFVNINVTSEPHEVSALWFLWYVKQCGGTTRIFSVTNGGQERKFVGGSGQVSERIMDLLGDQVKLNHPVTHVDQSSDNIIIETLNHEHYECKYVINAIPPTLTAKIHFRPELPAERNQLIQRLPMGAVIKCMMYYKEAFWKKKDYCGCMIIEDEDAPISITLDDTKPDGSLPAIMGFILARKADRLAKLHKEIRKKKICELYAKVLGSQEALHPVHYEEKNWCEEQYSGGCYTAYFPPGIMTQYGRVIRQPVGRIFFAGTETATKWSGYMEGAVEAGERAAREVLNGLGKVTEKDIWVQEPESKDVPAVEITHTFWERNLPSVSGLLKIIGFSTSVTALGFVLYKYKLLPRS

[3] = target: T1, Amine oxidase [flavin-containing] B; assay: Inhibition of recombinant human MAO-B expressed in baculovirus infected BTI-TN-5B1-4 insect cells using p-tyramine as substrate incubated for 15 mins by Amplex Red reagent and horseradish peroxidase based fluorometric analysis
[4] = target: T2, Amine oxidase [flavin-containing] A; assay: Inhibition of recombinant human MAO-A using p-tyramine as substrate incubated for 45 mins by Amplex Red reagent and horseradish peroxidase based fluorescence microplate reader analysis
[5] = target: T1, Amine oxidase [flavin-containing] B; assay: Inhibition of recombinant human MAO-B using kynuramine as substrate incubated for 20 mins by spectramax fluorescence microplate reader analysis
[6] = target: T1, Amine oxidase [flavin-containing] B; assay: Inhibition of recombinant human MAO-B using benzylamine as substrate incubated for 15 mins by spectrophotometric assay
Homo sapiens [7] = species: Homo sapiens; assay: Selectivity index, ratio of Ki for inhibition of human MAO-A to Ki for inhibition of human MAO-B
Homo sapiens [8] = species: Homo sapiens; assay: Selectivity index, ratio of Ki for inhibition of human MAO-B to Ki for inhibition of human MAO-A
[9] = target: T2, Amine oxidase [flavin-containing] A; assay: Inhibition of recombinant human MAO-A assessed as inhibition constant incubated for 60 mins by Amplex Red reagent and horseradish peroxidase based fluorometric analysis
[10] = target: T1, Amine oxidase [flavin-containing] B; assay: Inhibition of recombinant human MAO-B expressed in baculovirus infected BTI insect cells using p-tyramine as substrate incubated for 15 mins by Amplex Red reagent and horseradish peroxidase based fluorometric analysis
[11] = target: T1, Amine oxidase [flavin-containing] B; assay: Reversible inhibition of recombinant human MAO-B assessed as inhibition constant incubated for 30 mins by dilution assay
[12] = target: T2, Amine oxidase [flavin-containing] A; assay: Inhibition of recombinant human MAO-A using kynuramine as substrate incubated for 30 mins by fluorimetric analysis
[13] = target: T1, Amine oxidase [flavin-containing] B; assay: Inhibition of recombinant human MAO-B using kynuramine as substrate incubated for 30 mins by fluorimetric analysis
[14] = target: T1, Amine oxidase [flavin-containing] B; assay: Reversible inhibition of recombinant human MAO-B incubated for 30 mins by dilution assay
[15] = target: T1, Amine oxidase [flavin-containing] B; assay: Inhibition of recombinant human MAO-B using p-tyramine as substrate incubated for 15 mins by Amplex Red reagent and horseradish peroxidase based fluorometric analysis
[16] = Inhibition of goat liver MAO-B using p-tyramine as substrate incubated for 60 mins by spectrophotometric assay; format: tissue-based, Capra hircus
[17] = target: T2, Amine oxidase [flavin-containing] A; assay: Inhibition of recombinant human MAO-A using kynuramine as substrate incubated for 30 mins by spectrophotometric assay
[18] = target: T3, Amine oxidase [flavin-containing] B (Rattus norvegicus, UniProt P19643); assay: Inhibition of rat brain mitochondria MAO-B using benzylamine as substrate incubated for 30 mins by fluorescence microplate reader analysis
T3 sequence (P19643 whole entry): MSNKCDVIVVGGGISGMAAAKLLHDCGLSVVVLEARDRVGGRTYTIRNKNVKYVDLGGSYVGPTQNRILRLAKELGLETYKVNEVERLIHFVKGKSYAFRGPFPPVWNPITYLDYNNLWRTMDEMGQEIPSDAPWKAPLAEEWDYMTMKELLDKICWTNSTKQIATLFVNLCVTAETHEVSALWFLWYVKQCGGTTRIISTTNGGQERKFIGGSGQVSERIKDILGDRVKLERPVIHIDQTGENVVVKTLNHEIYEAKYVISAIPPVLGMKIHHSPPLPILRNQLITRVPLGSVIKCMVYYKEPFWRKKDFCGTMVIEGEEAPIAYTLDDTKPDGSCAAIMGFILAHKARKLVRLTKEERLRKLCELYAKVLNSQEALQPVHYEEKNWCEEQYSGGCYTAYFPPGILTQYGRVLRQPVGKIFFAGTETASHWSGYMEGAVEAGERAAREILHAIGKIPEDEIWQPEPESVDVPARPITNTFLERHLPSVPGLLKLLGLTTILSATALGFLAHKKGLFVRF

[19] = target: T2, Amine oxidase [flavin-containing] A; assay: Inhibition of recombinant human MAO-A using p-tyramine as substrate incubated for 15 mins by Amplex Red reagent and horseradish peroxidase based fluorometric analysis

SMILES: CC1=NN(C(=O)CN2CCNCC2)C(c2cc(Br)cc(Br)c2O)C1 (configuration not stated)
- Ki [1]: 280 nM

SMILES: O=[N+]([O-])c1cccc2cc(-c3ccccc3)oc12
- IC50 [2]: 168 nM

SMILES: COc1cccc(-c2cc3cc([N+](=O)[O-])ccc3o2)c1
- IC50 [3]: 24 nM

SMILES: CC(C)(C)c1ccc(S(=O)(=O)N2CCN(C(c3ccccc3)c3ccccc3)CC2)cc1
- IC50 [4]: 120 nM

SMILES: O=C(NNc1nc2ccccc2nc1Cc1ccccc1)c1ccc(O)cc1
- IC50 [5]: 17 nM

SMILES: CSc1ccc(C(=O)/C=C/c2cccc3c2OCO3)cc1
- IC50 [6]: 650 nM

SMILES: NC(=S)N1N=C(c2ccco2)CC1c1ccc(F)cc1 (configuration not stated)
- Ratio Ki (Homo sapiens [7]): 0.11

SMILES: O=C1/C(=C/c2c3ccccc3cc3ccccc23)Oc2ccccc21
- Ratio Ki (Homo sapiens [8]): 0.55

SMILES: C[C@H]1OC(=O)N(c2ccccc2)C1=O
- Ki [9]: 160 nM

SMILES: Cc1cccc(NC(=S)N2N=C(c3ccc(O)cc3)CC2c2cccs2)c1 (configuration not stated)
- IC50 [10]: 200 nM

SMILES: COc1ccc2oc(/C=C/c3ccc(Cl)cc3)cc(=O)c2c1
- IC50 [5]: 17 nM

SMILES: O=C(/C=C/C=C/c1ccccc1)c1ccco1
- Ki [11]: 4 nM
- IC50 [12]: 17 µM
- IC50 [13]: 2950 nM

SMILES: O=C(CN1CCNCC1)N1N=C(c2ccc(F)cc2)CC1c1cc(Cl)ccc1O (configuration not stated)
- Ki [9]: 160 nM

SMILES: O=C1CCc2ccc(OCc3ccccc3F)cc2O1
- IC50 [14]: 4 nM
- IC50 [15]: 0.37 nM

SMILES: C/N=C/c1cn(-c2ccccc2)nc1-c1ccc(F)cc1
- IC50 [3]: 24 nM
- IC50 [16]: 340 nM

SMILES: CCc1ccc(/C=C/C(=O)c2ccc3c(c2)OCO3)cc1
- IC50 [17]: 29 nM
- IC50 [18]: 212 nM

SMILES: O=c1oc2ccc(Cl)cc2c(O)c1-c1ccccc1O
- IC50 [19]: 55.5 µM
